Assays:
[1] = tested on: phenol oxidizing enzyme from Acremonium murorum; experiment: Bleaching of tomato stains on cotton swatches, phenol oxidizing enzyme/enhancer system, 50 mM Tris buffer wash solution; assay type: biochemical; conditions: enhancer 250 μM, 50 mM Tris buffer pH 9, 30 minutes, 30° C.; for ΔE, stain bleach performance, Oily Tomato Stain, With enzyme / ΔE, stain bleach performance, Tomato Extract, With enzyme: enzyme 20 mg/l
Experimental: (§1) The potential of the various enhancer to boost the bleach performance of phenol oxidizing enzyme was assessed by washing cotton swatches soiled with tomato stains. Two different bleach monitors were used:
(§2) Tomato extract material was prepared by acetone extraction of the chromophores from concentrated tomato paste. For the preparation of the stains, the colored acetone solution was applied to cotton swatches.
(§3) Oily tomato stains were prepared by applying heated concentrated tomato paste, to which 5 wt % Soya oil was added, to cotton swatches.
(§4) The pH of the wash solution was set to pH 9. Purified phenol oxidizing enzyme from Acremonium murorum was added to the wash solution at 20 mg/l. The enzyme from Acremonium murorum is decribed in WO-A-00/05349 (Unilever). The enhancers were all dosed at 250 μM. The wash solution was 50 mM Tris buffer.
(§5) The swatches were washed during 30 minutes, at 30° C. After the wash, the swatches were tumble-dried and the reflectance spectra were measured using a Minolta spectrometer. The color differences between the swatch before and after the wash data were expressed in the CIELAB L*a*b* color space. In this color space, L* indicates lightness and a* and b* are the chromaticity coordinates. Color differences between two swatches are expressed as ΔE, which is calculated from the following equation: […]

[2] = tested on: phenol oxidizing enzyme from Acremonium murorum; experiment: Bleaching of tomato stains on cotton swatches, phenol oxidizing enzyme/enhancer system, detergent formulation wash solution; assay type: biochemical; conditions: enhancer 250 μM, detergent formulation 2 g/l, 30 minutes, 30° C.; for ΔE, stain bleach performance, Oily Tomato Stain, With enzyme / ΔE, stain bleach performance, Tomato Extract, With enzyme: enzyme 20 mg/l
Experimental: as §1, §2, §3, §4, §5
Example 1 was repeated, using this time as wash solution a detergent formulation having the composition shown below, at a concentration of 2 g/l. The amounts are given in weight %.

Row | Structure (SMILES) | ΔE, stain bleach performance, Oily Tomato Stain, With enzyme [1] | ΔE, stain bleach performance, Oily Tomato Stain, Without enzyme [1] | ΔE, stain bleach performance, Tomato Extract, With enzyme [1] | ΔE, stain bleach performance, Tomato Extract, Without enzyme [1] | ΔE, stain bleach performance, Oily Tomato Stain, With enzyme [2] | ΔE, stain bleach performance, Oily Tomato Stain, Without enzyme [2] | ΔE, stain bleach performance, Tomato Extract, With enzyme [2] | ΔE, stain bleach performance, Tomato Extract, Without enzyme [2]
1 | Cc1ccc(S(=O)(=O)Nc2cc(Br)c(O)c(Br)c2Br)cc1 [3Brphenol3MeBSA, N-(2,3,5-tribromo-4-hydroxyphenyl) -4-Methyl benzenesulfonamide] | 6.21 | 1.56 | 19.59 | 10.86 | 11.71 | 6.87 | 27.57 | 12.86
2 | O=S(=O)(Nc1cc(Br)c(O)c(Br)c1Br)c1ccccc1 [3BrphenolBSA, N-(2,3,5-tribromo-4-hydroxyphenyl)-benzenesulfonamide] | 5.62 | 4.18 | 19.97 | 10.33 | 10.95 | 6.89 | 26.87 | 12.99

— US6323014A, “Method and composition for enhancing the activity of an enzyme” (Unilever Home & Personal Care division of Conopco, Inc., priority 1999, dated 2001)
